# Laboratory results published in US9073941B2, “Compounds and methods for treating tuberculosis infection” (Academia Sinica, priority 2010, dated 2015).
# Target: Mtb PDH (Lpd+DlaT+AceE) (Mycobacterium tuberculosis (strain ATCC 25618 / H37Rv), UniProt P9WHH9)
# Experiment: PDH Inhibition Activity
# Type: biochemical
# Settings: concentration required for 50% inhibition of PDH activity; fluorescence ex 360 nm / em 460 nm; read-out: PDH IC50
row,SMILES,IC50
1,Nc1c(Br)cc(Br)c2nsnc12 [Compound 202],1.69 µM

# Target: lipoamide dehydrogenase (Lpd) (Mycobacterium tuberculosis (strain ATCC 25618 / H37Rv), UniProt P9WHH9)
# Experiment: Lipoamide Dehydrogenase (Lpd) Inhibition Assay
# Type: biochemical
# Settings: not given
row,SMILES,IC50
1,COc1ccc(NC(=O)CN(C)S(=O)(=O)c2cc(Br)cnc2N)cc1Cl [Compound 503],0.7 ± 0.08 µM
2,CN(CC(=O)Nc1ccc(F)cc1)S(=O)(=O)c1cc(Br)cnc1N [Compound 504],4.3 ± 1.21 µM
3,CC(C)c1ccc(NC(=O)C2CCN(S(=O)(=O)c3cn(C(C)C)cn3)CC2)cc1 [Compound 509],2.87 ± 0.52 µM
4,CCOc1ccc(NC(=O)C2CCN(S(=O)(=O)c3cn(C(C)C)cn3)CC2)cc1 [Compound 520],2.17 ± 0.37 µM
5,CC(C)n1cnc(S(=O)(=O)N2CCC(C(=O)Nc3ccc4c(c3)OCO4)CC2)c1 [Compound 530],2.07 ± 0.71 µM
6,Cc1ccc(NC(=O)C2CCN(S(=O)(=O)c3cn(C(C)C)cn3)CC2)cc1F [Compound 532],2.85 ± 0.51 µM
7,CC(C)n1cnc(S(=O)(=O)N2CCC(C(=O)NCc3ccccc3)CC2)c1 [Compound 536],2.69 ± 0.8 µM
8,CCc1ccc(NC(=O)C2CCN(S(=O)(=O)c3cn(CC)cn3)CC2)cc1 [Compound 539],4.3 ± 1.66 µM
9,Cc1cccc(CNC(=O)C2CCN(S(=O)(=O)c3cn(C(C)C)cn3)CC2)c1 [Compound 540],4.18 ± 1.09 µM
10,CCOc1ccc(NC(=O)C2CCN(S(=O)(=O)c3cn(CC)cn3)CC2)cc1 [Compound 543],3.97 ± 1.13 µM
11,COc1cc(OC)c(NC(=O)C2CCN(S(=O)(=O)c3cn(C(C)C)cn3)CC2)cc1Cl [Compound 546],2.85 ± 0.78 µM
12,CC(C)n1cnc(S(=O)(=O)N2CCC(C(=O)NCc3cccs3)CC2)c1 [Compound 549],3.42 ± 1.33 µM
13,COc1cc(Cl)c(NC(=O)C2CCN(S(=O)(=O)c3cn(C(C)C)cn3)CC2)c(OC)c1 [Compound 552],2.87 ± 0.67 µM
14,CC(C)n1cnc(S(=O)(=O)N2CCC(C(=O)NCc3ccc(F)cc3)CC2)c1 [Compound 557],3.55 ± 1.17 µM
15,CN(C(=O)c1ccc2c(c1)OCCO2)c1nc2c(s1)CCc1c-2cnn1C [Compound 1106],2.67 ± 0.23 µM

# Same assay, conditions: concentration required for 50% inhibition of LPD activity; DTNB detection, OD405 nm
row,SMILES,IC50
1,COc1ccc(NC(=O)CN(C)S(=O)(=O)c2cc(Br)cnc2N)cc1OC [Compound 502],0.84 ± 0.13 µM
2,CC(C)c1ccc(NC(=O)CN(C)S(=O)(=O)c2cc(Br)cnc2N)cc1 [Compound 505],0.84 ± 0.11 µM
3,Cc1ccc(CNC(=O)CN(C)S(=O)(=O)c2cc(Br)cnc2N)cc1 [Compound 506],3.31 ± 0.49 µM
4,CC(C)n1cnc(S(=O)(=O)N2CCC(C(=O)Nc3ccccc3)CC2)c1 [Compound 507],2.77 ± 0.69 µM
5,Cc1cccc(NC(=O)C2CCN(S(=O)(=O)c3cn(C(C)C)cn3)CC2)c1 [Compound 508],2.61 ± 0.82 µM
6,Cc1ccc(NC(=O)C2CCN(S(=O)(=O)c3cn(C(C)C)cn3)CC2)cc1C [Compound 510],2.45 ± 0.21 µM
7,CCc1cccc(NC(=O)C2CCN(S(=O)(=O)c3cn(C(C)C)cn3)CC2)c1 [Compound 511],2.55 ± 0.79 µM
8,CCc1ccc(NC(=O)C2CCN(S(=O)(=O)c3cn(C(C)C)cn3)CC2)cc1 [Compound 512],2.9 ± 0.71 µM
9,CC(C)n1cnc(S(=O)(=O)N2CCC(C(=O)Nc3ccc(S(N)(=O)=O)cc3)CC2)c1 [Compound 513],4.12 ± 1.81 µM
10,Cc1cc(C)cc(NC(=O)C2CCN(S(=O)(=O)c3cn(C(C)C)cn3)CC2)c1 [Compound 514],2.67 ± 0.57 µM
11,CSc1cccc(NC(=O)C2CCN(S(=O)(=O)c3cn(C(C)C)cn3)CC2)c1 [Compound 515],4.81 ± 0.84 µM
12,COc1cccc(NC(=O)C2CCN(S(=O)(=O)c3cn(C(C)C)cn3)CC2)c1 [Compound 516],2.46 ± 0.76 µM
13,CC(C)n1cnc(S(=O)(=O)N2CCC(C(=O)Nc3cccc(F)c3)CC2)c1 [Compound 517],3.61 ± 0.98 µM
14,CC(C)n1cnc(S(=O)(=O)N2CCC(C(=O)Nc3cccc(Cl)c3)CC2)c1 [Compound 518],3.83 ± 0.78 µM
15,CC(C)n1cnc(S(=O)(=O)N2CCC(C(=O)Nc3cccc(Br)c3)CC2)c1 [Compound 519],2.76 ± 0.59 µM
16,COc1ccc(NC(=O)C2CCN(S(=O)(=O)c3cn(C(C)C)cn3)CC2)cc1 [Compound 521],2.31 ± 0.36 µM
17,CC(C)n1cnc(S(=O)(=O)N2CCC(C(=O)Nc3ccc(Cl)cc3)CC2)c1 [Compound 522],2.94 ± 0.72 µM
18,CC(C)n1cnc(S(=O)(=O)N2CCC(C(=O)Nc3ccc4c(c3)OCCO4)CC2)c1 [Compound 523],1.6 ± 0.48 µM
19,CC(C)n1cnc(S(=O)(=O)N2CCC(C(=O)Nc3ccccc3F)CC2)c1 [Compound 524],2.67 ± 0.65 µM
20,CCOC(=O)c1ccc(NC(=O)C2CCN(S(=O)(=O)c3cn(C(C)C)cn3)CC2)cc1 [Compound 525],2.44 ± 0.58 µM
21,Cc1ccc(NC(=O)C2CCN(S(=O)(=O)c3cn(C(C)C)cn3)CC2)cc1N(C)C [Compound 526],2.79 ± 0.72 µM
22,CC(C)n1cnc(S(=O)(=O)N2CCC(C(=O)Nc3ccc(F)c(Cl)c3)CC2)c1 [Compound 527],3.13 ± 0.79 µM

row,SMILES,IC50
1,COc1ccc(NC(=O)C2CCN(S(=O)(=O)c3cn(C(C)C)cn3)CC2)cc1OC [Compound 528],1.83 ± 0.14 µM
2,Cc1ccc(C)c(NC(=O)C2CCN(S(=O)(=O)c3cn(C(C)C)cn3)CC2)c1 [Compound 529],3.92 ± 2.47 µM
3,Cc1cc(NC(=O)C2CCN(S(=O)(=O)c3cn(C(C)C)cn3)CC2)ccc1Br [Compound 531],4.11 ± 1.59 µM
4,Cc1ccc(NC(=O)C2CCN(S(=O)(=O)c3cn(C(C)C)cn3)CC2)cc1Cl [Compound 533],2.64 ± 0.19 µM
5,COc1ccc(NC(=O)C2CCN(S(=O)(=O)c3cn(C(C)C)cn3)CC2)cc1Cl [Compound 534],1.69 ± 0.38 µM
6,CC(C)n1cnc(S(=O)(=O)N2CCC(C(=O)Nc3cccc(-c4ccno4)c3)CC2)c1 [Compound 535],2.12 ± 0.21 µM
7,COc1ccc(NC(=O)C2CCN(S(=O)(=O)c3cn(C(C)C)cn3)CC2)c(OC)c1 [Compound 537],3.4 ± 1.6 µM
8,CC(C)n1cnc(S(=O)(=O)N2CCC(C(=O)Nc3ccc(Br)cc3F)CC2)c1 [Compound 538],2.54 ± 0.57 µM
9,CCn1cnc(S(=O)(=O)N2CCC(C(=O)Nc3ccc(OC)cc3)CC2)c1 [Compound 541],3.31 ± 1.22 µM
10,Cc1ccc2nc(NC(=O)C3CCN(S(=O)(=O)c4cn(C(C)C)cn4)CC3)sc2c1 [Compound 542],5.06 ± 1.09 µM
11,CCn1cnc(S(=O)(=O)N2CCC(C(=O)Nc3ccc(C)c(Cl)c3)CC2)c1 [Compound 544],4.55 ± 1.27 µM
12,CCn1cnc(S(=O)(=O)N2CCC(C(=O)Nc3ccc4c(c3)OCCO4)CC2)c1 [Compound 545],2.69 ± 0.56 µM
13,CC(C)n1cnc(S(=O)(=O)N2CCC(C(=O)NCCCc3ccccc3)CC2)c1 [Compound 547],2.67 ± 0.6 µM
14,CCn1cnc(S(=O)(=O)N2CCC(C(=O)Nc3ccc(OC)c(Cl)c3)CC2)c1 [Compound 548],2.35 ± 0.52 µM
15,CCOc1ccc2nc(NC(=O)C3CCN(S(=O)(=O)c4cn(C(C)C)cn4)CC3)sc2c1 [Compound 550],2.13 ± 0.24 µM
16,COc1ccc2nc(NC(=O)C3CCN(S(=O)(=O)c4cn(C(C)C)cn4)CC3)sc2c1 [Compound 551],2.28 ± 0.11 µM
17,CCn1cnc(S(=O)(=O)N2CCC(C(=O)Nc3cccc(-c4ccno4)c3)CC2)c1 [Compound 553],2.68 ± 0.99 µM
18,CCOc1ccccc1CNC(=O)C1CCN(S(=O)(=O)c2cn(C(C)C)cn2)CC1 [Compound 554],3.42 ± 0.88 µM
19,CC(C)n1cnc(S(=O)(=O)N2CCC(C(=O)NCc3ccc(Br)cc3)CC2)c1 [Compound 555],3.2 ± 1.05 µM
20,CC(C)n1cnc(S(=O)(=O)N2CCC(C(=O)NCc3ccc(Cl)cc3)CC2)c1 [Compound 556],3.75 ± 1.01 µM
21,COc1ccc(CNC(=O)C2CCN(S(=O)(=O)c3cn(C(C)C)cn3)CC2)cc1 [Compound 558],3.33 ± 0.8 µM
22,CC(C)n1cnc(S(=O)(=O)N2CCC(C(=O)NC3CC3)CC2)c1 [Compound 559],2.99 ± 1.39 µM

row,SMILES,IC50
1,CC(C)Oc1ccc(CNC(=O)C2CCN(S(=O)(=O)c3cn(C(C)C)cn3)CC2)cc1 [Compound 560],3.86 ± 0.9 µM
2,CCOc1ccc(CNC(=O)C2CCN(S(=O)(=O)c3cn(C(C)C)cn3)CC2)cc1OC [Compound 561],3.02 ± 1.78 µM
3,CCOc1ccc2nc(NC(=O)C3CCN(S(=O)(=O)c4cn(CC)cn4)CC3)sc2c1 [Compound 562],3.5 ± 0.47 µM
4,CCn1cnc(S(=O)(=O)N2CCC(C(=O)Nc3nc4ccc(OC)cc4s3)CC2)c1 [Compound 563],3.02 ± 0.87 µM
5,COc1ccc(CCNC(=O)C2CCN(S(=O)(=O)c3cn(C(C)C)cn3)CC2)cc1OC [Compound 564],2.22 ± 0.52 µM
6,CCSc1nnc(NC(=O)C2CCN(S(=O)(=O)c3cn(CC)cn3)CC2)s1 [Compound 565],3.06 ± 0.47 µM
7,CCn1cnc(S(=O)(=O)N2CCC(C(=O)NCCc3nc4cc(C)ccc4[nH]3)CC2)c1 [Compound 566],3.91 ± 0.79 µM
8,Cn1c(=O)nc2[nH]nc(/C=C/c3ccccc3)nc-2c1=O [Compound 622],2.16 ± 0.26 µM
9,COc1ccc2cc(CNc3ccc(O)cc3)c(O)nc2c1 [Compound 801],2.25 ± 0.16 µM
10,CCOc1ccc2cc(CNc3ccc(O)cc3)c(O)nc2c1 [Compound 802],3.34 ± 0.26 µM
11,Oc1ccc(NCc2cc3ccccc3nc2O)cc1 [Compound 803],1.62 ± 0.18 µM
12,Oc1ccc(NCc2cc3cc4c(cc3nc2O)OCO4)cc1 [Compound 804],4.67 ± 0.57 µM
13,Cc1ccc2cc(CNc3ccc(O)cc3)c(O)nc2c1 [Compound 805],1.64 ± 0.14 µM
14,CCc1ccc2nc(O)c(CNc3ccc(N(C)C)cc3)cc2c1 [Compound 806],4.73 ± 0.91 µM
15,CCOc1ccc2nc(O)c(CNc3ccc4[nH]ncc4c3)cc2c1 [Compound 807],4.54 ± 0.77 µM
16,COCCN(C(=O)c1cccs1)c1nc2c(s1)CCc1c-2cnn1C [Compound 1101],1.62 ± 0.24 µM
17,CCCN(C(=O)c1ccc(COC)o1)c1nc2c(s1)CCc1c-2cnn1C [Compound 1102],3.16 ± 0.43 µM
18,CN(C(=O)Cc1cccs1)c1nc2c(s1)CCc1c-2cnn1C [Compound 1103],2.89 ± 0.46 µM
19,COCCN(C(=O)c1nsc(Cl)c1Cl)c1nc2c(s1)CCc1c-2cnn1C [Compound 1104],2.24 ± 0.26 µM
20,CN(C(=O)c1ccc(Cn2cccn2)o1)c1nc2c(s1)CCc1c-2cnn1C [Compound 1105],3.64 ± 0.51 µM
21,COC1CCCC(C(=O)N(CC2CCCO2)c2nc3c(s2)CCc2c-3cnn2C)C1 (stereo not shown) [Compound 1107],3.22 ± 0.5 µM
22,CCN(C(=O)C1CCCO1)c1nc2c(s1)CCc1c-2cnn1C (stereo not shown) [Compound 1108],3.76 ± 0.19 µM
